Target: SARS-CoV-2 3CL-protease (Severe acute respiratory syndrome coronavirus 2, UniProt P0DTD1)
Assay: SARS-CoV-2 3C-like (3CL) protease fluorescence assay (FRET)
Type: biochemical
Conditions: recombinant SARS-CoV-2 3CL-protease 10 nM, 30 min preincubation, run in duplicate; read-out: FRET IC50

Row | SMILES | IC50 [nM]
1 | [2H]C([2H])([2H])N(C(=O)C(=O)Nc1ccc(C(F)(F)F)cc1)[C@@H](CC1CC1)C(=O)N1C[C@]2(C[C@H]1C#N)C(=O)Nc1ccccc12 [Example 54] | < 100
2 | [2H]C([2H])([2H])N(C(=O)C(=O)Nc1ccc(F)cc1C(F)(F)F)[C@@H](CC1CC1)C(=O)N1C[C@]2(C[C@H]1C#N)C(=O)Nc1ccccc12 [Example 55] | < 100
3 | [2H]C([2H])([2H])N(C(=O)C(=O)NCC(C)C)[C@@H](CCCC)C(=O)N1C[C@]2(C[C@H]1C#N)C(=O)Nc1ccccc12 [Example 56] | < 100
4 | [2H]C([2H])([2H])N(C(=O)C(=O)c1ccc(F)cc1)[C@@H](CCCC)C(=O)N1C[C@]2(C[C@H]1C#N)C(=O)Nc1ccccc12 [Example 57] | < 100
5 | CC(C)(C)C[C@@H](C(=O)N1C[C@]2(C[C@H]1C#N)C(=O)Nc1ccccc12)N(CC(F)F)C(=O)C(=O)Nc1ccccc1 [Example 60] | 100 to 1000
6 | CC(C)(C)C[C@@H](C(=O)N1C[C@]2(C[C@H]1C#N)C(=O)Nc1ccccc12)N(CC(F)F)C(=O)C(=O)Nc1ccccn1 [Example 61] | > 1000
7 | CC(C)(C)C[C@@H](C(=O)N1C[C@]2(C[C@H]1C#N)C(=O)Nc1ccccc12)N(CC(F)F)C(=O)C(=O)Nc1ccc(F)cc1 [Example 62] | 100 to 1000
8 | CC(C)(C)C[C@@H](C(=O)N1C[C@]2(C[C@H]1C#N)C(=O)Nc1ccccc12)N(CC(F)F)C(=O)C(=O)NC1CC1 [Example 63] | 100 to 1000
9 | CC(C)(C)C[C@@H](C(=O)N1C[C@]2(C[C@H]1C#N)C(=O)Nc1ccccc12)N(CC(F)(F)F)C(=O)C(=O)Nc1ccc(F)cc1 [Example 64] | 100 to 1000
10 | CC(C)(C)C[C@@H](C(=O)N1C[C@]2(C[C@H]1C#N)C(=O)Nc1ccccc12)N(CC(F)(F)F)C(=O)C(=O)Nc1ccccc1 [Example 65] | 100 to 1000
11 | CC(C)(C)C[C@@H](C(=O)N1C[C@]2(C[C@H]1C#N)C(=O)Nc1ccccc12)N(CC(F)(F)F)C(=O)C(=O)Nc1ccccn1 [Example 66] | > 1000
12 | CC(C)(C)C[C@@H](C(=O)N1C[C@]2(C[C@H]1C#N)C(=O)Nc1ccccc12)N(CC(F)(F)F)C(=O)C(=O)NC1CC1 [Example 67] | 100 to 1000
13 | Cc1cccc(C)c1NC(=O)C(=O)N[C@@H](Cc1ccc(F)cc1)C(=O)N1C[C@]2(C[C@H]1C#N)C(=O)Nc1ccccc12 [Example 73] | < 100
14 | Cc1cccc(C)c1NC(=O)C(=O)N[C@@H](CC1CC1)C(=O)N1C[C@]2(C[C@H]1C#N)C(=O)Nc1ccccc12 [Example 78] | < 100
15 | CCCC[C@H](NC(=O)C(=O)Nc1c(F)cccc1C(F)(F)F)C(=O)N1C[C@]2(C[C@H]1C#N)C(=O)Nc1ccccc12 [Example 79] | < 100
16 | CC(C)(C)C[C@H](NC(=O)C(=O)Nc1cc(F)cc(F)c1)C(=O)N1C[C@]2(C[C@H]1C#N)C(=O)Nc1ccccc12 [Example 86] | < 100
17 | CC(C)(C)C[C@H](NC(=O)C(=O)NC(C)(C)c1ccccn1)C(=O)N1C[C@]2(C[C@H]1C#N)C(=O)Nc1ccccc12 [Example 106] | < 100
18 | CC(C)(C)C[C@H](NC(=O)C(=O)NC1(c2ccccc2C(F)(F)F)CC1)C(=O)N1C[C@]2(C[C@H]1C#N)C(=O)Nc1ccccc12 [Example 107] | < 100
19 | CC(C)(C)C[C@H](NC(=O)C(=O)NC1(c2ccc(C(F)(F)F)cc2)CC1)C(=O)N1C[C@]2(C[C@H]1C#N)C(=O)Nc1ccccc12 [Example 108] | < 100
20 | CN(C(=O)C(=O)N[C@@H](CC(C)(C)C)C(=O)N1C[C@]2(C[C@H]1C#N)C(=O)Nc1ccccc12)C1CC1 [Example 109] | > 1000

Row | SMILES | IC50 [nM]
21 | CC(C)(C)C[C@H](NC(=O)C(=O)N1CCCCC1)C(=O)N1C[C@]2(C[C@H]1C#N)C(=O)Nc1ccccc12 [Example 110] | > 1000
22 | CC(C)(C)C[C@H](NC(=O)C(=O)N1CCC(F)(F)CC1)C(=O)N1C[C@]2(C[C@H]1C#N)C(=O)Nc1ccccc12 [Example 111] | > 1000
23 | CC(C)(C)C[C@H](NC(=O)C(=O)N1CCC(C(F)(F)F)CC1)C(=O)N1C[C@]2(C[C@H]1C#N)C(=O)Nc1ccccc12 [Example 112] | 100 to 1000
24 | CC(C)(C)C[C@H](NC(=O)C(=O)Nc1ccc2cccnc2c1)C(=O)N1C[C@]2(C[C@H]1C#N)C(=O)Nc1ccccc12 [Example 113] | < 100
25 | CC(C)(C)C[C@H](NC(=O)C(=O)Nc1ccc2ncccc2c1)C(=O)N1C[C@]2(C[C@H]1C#N)C(=O)Nc1ccccc12 [Example 114] | < 100
26 | CC(C)(C)C[C@H](NC(=O)C(=O)Nc1ncccc1F)C(=O)N1C[C@]2(C[C@H]1C#N)C(=O)Nc1ccccc12 [Example 121] | < 100
27 | CC(C)(C)C[C@H](NC(=O)C(=O)Nc1c(F)cncc1F)C(=O)N1C[C@]2(C[C@H]1C#N)C(=O)Nc1ccccc12 [Example 122] | < 100
28 | CC(C)(C)C[C@H](NC(=O)C(=O)Nc1ccc2[nH]ccc2c1)C(=O)N1C[C@]2(C[C@H]1C#N)C(=O)Nc1ccccc12 [Example 123] | < 100
29 | CC(C)(C)C[C@H](NC(=O)C(=O)Nc1ccc2cc[nH]c2c1)C(=O)N1C[C@]2(C[C@H]1C#N)C(=O)Nc1ccccc12 [Example 124] | < 100
30 | CC(C)(C)C[C@H](NC(=O)C(=O)Nc1ncccc1C(F)(F)F)C(=O)N1C[C@]2(C[C@H]1C#N)C(=O)Nc1ccccc12 [Example 125] | < 100
31 | Cc1cccnc1NC(=O)C(=O)N[C@@H](CC(C)(C)C)C(=O)N1C[C@]2(C[C@H]1C#N)C(=O)Nc1ccccc12 [Example 126] | < 100
32 | Cc1ccc(NC(=O)C(=O)N[C@@H](CC(C)(C)C)C(=O)N2C[C@]3(C[C@H]2C#N)C(=O)Nc2ccccc23)nc1 [Example 127] | < 100
33 | CC(C)(C)C[C@H](NC(=O)C(=O)Nc1ccnc(C(F)(F)F)c1)C(=O)N1C[C@]2(C[C@H]1C#N)C(=O)Nc1ccccc12 [Example 128] | < 100
34 | CC(C)(C)C[C@H](NC(=O)C(=O)N[C@]12C[C@](C(F)(F)F)(C1)C2)C(=O)N1C[C@]2(C[C@H]1C#N)C(=O)Nc1ccccc12 [Example 129] | < 100
35 | CC(C)(C)C[C@H](NC(=O)C(=O)NC12CCC(CC1)CC2)C(=O)N1C[C@]2(C[C@H]1C#N)C(=O)Nc1ccccc12 [Example 130] | < 100
36 | CC(C)(C)C[C@H](NC(=O)C(=O)NC1CCC(F)(F)CC1)C(=O)N1C[C@]2(C[C@H]1C#N)C(=O)Nc1ccccc12 [Example 131] | < 100
37 | Cc1cccc(C(F)(F)F)c1NC(=O)C(=O)N[C@@H](CC(C)(C)C)C(=O)N1C[C@]2(C[C@H]1C#N)C(=O)Nc1ccccc12 [Example 132] | < 100
38 | CC(C)(C)C[C@H](NC(=O)C(=O)NC1(C(F)(F)F)CC1)C(=O)N1C[C@]2(C[C@H]1C#N)C(=O)Nc1ccccc12 [Example 134] | < 100
39 | CC(C)(C)C[C@H](NC(=O)C(=O)NC(C)(C)C(F)(F)F)C(=O)N1C[C@]2(C[C@H]1C#N)C(=O)Nc1ccccc12 [Example 135] | < 100
40 | CC(C)(C)C[C@H](NC(=O)C(=O)N[C@]12CC[C@H](C1)C2)C(=O)N1C[C@]2(C[C@H]1C#N)C(=O)Nc1ccccc12 [Example 136] | < 100

Row | SMILES | IC50 [nM]
41 | CC(C)(C)C[C@H](NC(=O)C(=O)Nc1ccc(C(F)(F)F)cc1C(F)(F)F)C(=O)N1C[C@]2(C[C@H]1C#N)C(=O)Nc1ccccc12 [Example 137] | 100 to 1000
42 | CC(C)(C)C[C@H](NC(=O)C(=O)NC1(c2ccccc2F)CC1)C(=O)N1C[C@]2(C[C@H]1C#N)C(=O)Nc1ccccc12 [Example 139] | < 100
43 | CC(C)(C)C[C@H](NC(=O)C(=O)NC1(C)CC1)C(=O)N1C[C@]2(C[C@H]1C#N)C(=O)Nc1ccccc12 [Example 140] | < 100
44 | CC(C)(C)C[C@H](NC(=O)C(=O)N[C@]12C[C@](C)(C1)C2)C(=O)N1C[C@]2(C[C@H]1C#N)C(=O)Nc1ccccc12 [Example 141] | < 100
45 | CC(C)(C)C[C@H](NC(=O)C(=O)N[C@]12C[C@](F)(C1)C2)C(=O)N1C[C@]2(C[C@H]1C#N)C(=O)Nc1ccccc12 [Example 142] | < 100
46 | Cc1cc(F)cc(C)c1NC(=O)C(=O)N[C@@H](CC(C)(C)C)C(=O)N1C[C@]2(C[C@H]1C#N)C(=O)Nc1ccccc12 [Example 143] | < 100
47 | COc1cccc(C)c1NC(=O)C(=O)N[C@@H](CC(C)(C)C)C(=O)N1C[C@]2(C[C@H]1C#N)C(=O)Nc1ccccc12 [Example 144] | < 100
48 | CC(C)(C)C[C@H](NC(=O)C(=O)Nc1c(C#N)cccc1C(F)(F)F)C(=O)N1C[C@]2(C[C@H]1C#N)C(=O)Nc1ccccc12 [Example 145] | 100 to 1000
49 | CC(C)(C)C[C@H](NC(=O)C(=O)Nc1c(F)cccc1Cl)C(=O)N1C[C@]2(C[C@H]1C#N)C(=O)Nc1ccccc12 [Example 146] | < 100
50 | Cc1cccc(Cl)c1NC(=O)C(=O)N[C@@H](CC(C)(C)C)C(=O)N1C[C@]2(C[C@H]1C#N)C(=O)Nc1ccccc12 [Example 147] | < 100
51 | CC(C)(C)C[C@H](NC(=O)C(=O)Nc1c(Cl)cccc1C#N)C(=O)N1C[C@]2(C[C@H]1C#N)C(=O)Nc1ccccc12 [Example 148] | < 100
52 | CC(C)(C)C[C@H](NC(=O)C(=O)Nc1ccc(Cl)cc1C(F)(F)F)C(=O)N1C[C@]2(C[C@H]1C#N)C(=O)Nc1ccccc12 [Example 149] | < 100
53 | CC(C)(C)C[C@H](NC(=O)C(=O)Nc1c(F)ccc(F)c1F)C(=O)N1C[C@]2(C[C@H]1C#N)C(=O)Nc1ccccc12 [Example 150] | < 100
54 | CN(C(=O)C(=O)Nc1c(Cl)cccc1Cl)[C@@H](CC(C)(C)C)C(=O)N1C[C@]2(C[C@H]1C#N)C(=O)Nc1ccccc12 [Example 151] | < 100
55 | Cc1ccnc(C)c1NC(=O)C(=O)N[C@@H](CC(C)(C)C)C(=O)N1C[C@]2(C[C@H]1C#N)C(=O)Nc1ccccc12 [Example 152] | < 100
56 | CC(C)(C)C[C@H](NC(=O)C(=O)Nc1cc(C(F)(F)F)ccn1)C(=O)N1C[C@]2(C[C@H]1C#N)C(=O)Nc1ccccc12 [Example 153] | < 100
57 | CC(C)(C)C[C@H](NC(=O)C(=O)Nc1ccc(C(F)(F)F)cn1)C(=O)N1C[C@]2(C[C@H]1C#N)C(=O)Nc1ccccc12 [Example 154] | < 100
58 | CC(C)(C)C[C@H](NC(=O)C(=O)Nc1cccc(C(F)(F)F)n1)C(=O)N1C[C@]2(C[C@H]1C#N)C(=O)Nc1ccccc12 [Example 155] | < 100

Source: patent publication US12643905B2, “Spiropyrrolidine derived antiviral agents” (priority 2021, dated 2026)
